Data reported in patent publication US11566022B2, “3-(5-methoxy-1-oxoisoindolin-2-yl)piperidine-2,6-dione derivatives and uses thereof” (NOVARTIS AG, priority 2019, dated 2023).

Biological target: HiBit-WIZ fusion protein (Homo sapiens, UniProt O95785+Q96SW2)
Assay: Quantification of WIZ protein levels in HiBit tag fusion protein assay (WIZ HiBit assay in 293T cells)
Format: cell-based
Set-up: Dmax: dose or concentration left out as unconfirmed
Settings: for Dmax / remaining activity at up to 25 µM: HEK-293T; for Dmax / % degradation of WIZ (100-Amax): 100 minus Amax; for Dmax / remaining activity at up to 25 µM / % degradation of WIZ (100-Amax) / WIZ Amax: 293T cells; for Dmax: read-out: % degradation of WIZ (100-Amax); for remaining activity at up to 25 µM / WIZ Amax: DMSO-normalized, curve-fitted percentage of WIZ-HiBit remaining at 25 uM; for remaining activity at up to 25 µM: read-out: WIZ Amax; for DC50: WIZ HiBit assay in 293T cells, 10-point, 5-fold dose response, highest concentration 25 μM, about 18 hours, read-out: WIZ AC50; for % degradation of WIZ (100-Amax): at 25 uM

Chain of HiBit-WIZ fusion protein (O95785 whole entry, the tested form may be a part): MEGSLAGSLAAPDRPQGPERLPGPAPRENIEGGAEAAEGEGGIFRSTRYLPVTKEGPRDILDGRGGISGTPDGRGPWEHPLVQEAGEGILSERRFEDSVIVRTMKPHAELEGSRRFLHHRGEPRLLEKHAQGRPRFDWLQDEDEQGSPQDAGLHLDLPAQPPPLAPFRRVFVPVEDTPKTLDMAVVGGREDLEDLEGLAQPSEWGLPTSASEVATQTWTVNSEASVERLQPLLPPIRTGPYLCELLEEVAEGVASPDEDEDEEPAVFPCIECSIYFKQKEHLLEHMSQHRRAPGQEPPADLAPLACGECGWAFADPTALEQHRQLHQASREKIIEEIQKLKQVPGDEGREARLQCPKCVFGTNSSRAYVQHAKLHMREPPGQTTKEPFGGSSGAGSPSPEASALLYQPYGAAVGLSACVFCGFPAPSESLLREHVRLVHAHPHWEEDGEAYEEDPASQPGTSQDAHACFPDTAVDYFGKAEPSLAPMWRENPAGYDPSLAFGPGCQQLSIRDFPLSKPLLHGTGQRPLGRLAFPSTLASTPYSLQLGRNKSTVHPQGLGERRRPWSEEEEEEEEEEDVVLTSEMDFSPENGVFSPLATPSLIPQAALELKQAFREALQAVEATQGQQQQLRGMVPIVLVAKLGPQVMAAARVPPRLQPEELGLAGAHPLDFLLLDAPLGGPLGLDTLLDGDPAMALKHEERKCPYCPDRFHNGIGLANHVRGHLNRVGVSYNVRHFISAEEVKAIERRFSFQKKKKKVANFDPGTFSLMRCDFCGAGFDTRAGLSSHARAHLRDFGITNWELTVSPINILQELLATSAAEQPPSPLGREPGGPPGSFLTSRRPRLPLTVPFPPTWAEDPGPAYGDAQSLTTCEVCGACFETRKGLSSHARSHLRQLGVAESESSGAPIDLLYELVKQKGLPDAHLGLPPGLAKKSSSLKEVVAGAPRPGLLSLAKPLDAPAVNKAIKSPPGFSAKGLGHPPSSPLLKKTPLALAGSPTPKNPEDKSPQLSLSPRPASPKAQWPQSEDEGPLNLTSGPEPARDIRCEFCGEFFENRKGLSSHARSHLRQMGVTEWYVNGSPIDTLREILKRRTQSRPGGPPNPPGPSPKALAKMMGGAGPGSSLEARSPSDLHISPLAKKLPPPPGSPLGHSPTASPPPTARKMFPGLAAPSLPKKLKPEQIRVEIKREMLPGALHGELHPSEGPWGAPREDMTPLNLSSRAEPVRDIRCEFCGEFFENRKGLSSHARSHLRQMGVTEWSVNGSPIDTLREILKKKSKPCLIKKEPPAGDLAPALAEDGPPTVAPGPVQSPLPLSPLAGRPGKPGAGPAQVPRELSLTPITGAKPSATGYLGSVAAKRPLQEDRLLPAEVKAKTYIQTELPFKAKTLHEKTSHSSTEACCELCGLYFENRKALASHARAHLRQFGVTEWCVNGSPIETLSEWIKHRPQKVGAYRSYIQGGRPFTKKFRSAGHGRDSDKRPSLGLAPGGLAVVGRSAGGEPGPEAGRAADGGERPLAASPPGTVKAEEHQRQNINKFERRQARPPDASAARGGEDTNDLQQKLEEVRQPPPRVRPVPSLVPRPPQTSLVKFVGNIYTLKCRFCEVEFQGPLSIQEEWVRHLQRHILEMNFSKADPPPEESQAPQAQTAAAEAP
Chain of HiBit-WIZ fusion protein (Q96SW2 whole entry, the tested form may be a part): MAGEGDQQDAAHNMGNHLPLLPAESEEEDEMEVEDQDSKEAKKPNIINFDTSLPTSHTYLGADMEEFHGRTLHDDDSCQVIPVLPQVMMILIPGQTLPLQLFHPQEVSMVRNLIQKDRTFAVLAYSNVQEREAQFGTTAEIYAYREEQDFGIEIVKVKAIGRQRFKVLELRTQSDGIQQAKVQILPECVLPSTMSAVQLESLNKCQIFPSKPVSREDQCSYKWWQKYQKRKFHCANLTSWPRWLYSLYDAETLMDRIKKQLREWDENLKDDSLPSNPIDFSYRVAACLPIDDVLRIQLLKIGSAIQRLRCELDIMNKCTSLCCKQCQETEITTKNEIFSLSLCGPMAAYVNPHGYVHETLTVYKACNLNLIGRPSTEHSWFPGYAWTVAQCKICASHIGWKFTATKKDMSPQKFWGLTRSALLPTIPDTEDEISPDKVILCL
Chain of HiBit-WIZ fusion protein (Q16531 whole entry partner, the tested form may be a part): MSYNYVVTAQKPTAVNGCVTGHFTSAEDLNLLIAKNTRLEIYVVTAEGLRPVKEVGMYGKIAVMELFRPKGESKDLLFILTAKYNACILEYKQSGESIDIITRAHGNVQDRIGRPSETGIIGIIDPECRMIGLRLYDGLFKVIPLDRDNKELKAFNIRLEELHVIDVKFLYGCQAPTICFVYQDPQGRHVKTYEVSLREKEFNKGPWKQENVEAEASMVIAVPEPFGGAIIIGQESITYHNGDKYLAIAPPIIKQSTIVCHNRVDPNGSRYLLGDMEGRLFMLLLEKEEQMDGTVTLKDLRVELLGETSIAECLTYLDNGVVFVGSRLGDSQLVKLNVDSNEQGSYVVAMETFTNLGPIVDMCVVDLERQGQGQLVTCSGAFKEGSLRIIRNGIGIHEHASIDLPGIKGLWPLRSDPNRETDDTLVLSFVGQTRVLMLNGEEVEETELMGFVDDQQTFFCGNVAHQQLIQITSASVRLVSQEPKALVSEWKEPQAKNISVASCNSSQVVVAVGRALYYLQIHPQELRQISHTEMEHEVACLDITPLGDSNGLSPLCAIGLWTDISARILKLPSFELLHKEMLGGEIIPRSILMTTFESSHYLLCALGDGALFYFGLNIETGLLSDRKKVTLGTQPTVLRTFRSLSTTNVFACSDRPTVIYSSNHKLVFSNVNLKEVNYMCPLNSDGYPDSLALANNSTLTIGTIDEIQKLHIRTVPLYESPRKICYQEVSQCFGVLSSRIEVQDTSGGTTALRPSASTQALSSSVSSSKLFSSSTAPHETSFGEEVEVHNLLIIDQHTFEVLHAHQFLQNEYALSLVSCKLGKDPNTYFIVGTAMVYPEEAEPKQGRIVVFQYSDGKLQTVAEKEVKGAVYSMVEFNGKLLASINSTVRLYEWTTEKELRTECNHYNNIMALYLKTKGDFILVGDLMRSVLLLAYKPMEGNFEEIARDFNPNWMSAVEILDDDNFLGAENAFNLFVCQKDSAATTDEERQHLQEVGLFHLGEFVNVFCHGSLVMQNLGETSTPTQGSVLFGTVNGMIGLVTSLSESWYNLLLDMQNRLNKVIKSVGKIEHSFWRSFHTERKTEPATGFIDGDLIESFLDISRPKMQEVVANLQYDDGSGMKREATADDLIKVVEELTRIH

| Dmax [%] | remaining activity at up to 25 µM [%] | DC50 [nM] | SMILES | % degradation of WIZ (100-Amax) [%] | WIZ Amax [%] |
| --- | --- | --- | --- | --- | --- |
| 0.7 | 99.3 | > 25000 | CC(C)(C)c1cc(CC(=O)N2CCCC[C@H]2COc2ccc3c(c2)CN(C2CCC(=O)NC2=O)C3=O)on1 (stereo partly drawn) [Compound I-72hj] |  |  |
| 99.4 | 0.64 | 3.8 | O=C1CCC(N2Cc3cc(OC[C@H]4CCCCN4Cc4ccc(F)cc4)ccc3C2=O)C(=O)N1 (stereo partly drawn) [Compound I-113] |  |  |
| 54.1 | 45.9 | > 25000 | O=C1CCC(N2Cc3cc(OC[C@@H]4CCCCN4Cc4c[nH]cn4)ccc3C2=O)C(=O)N1 (stereo partly drawn) [Compound I-50al] |  |  |
| 99.8 | 0.2 | 4 | O=C1CCC(N2Cc3cc(OC[C@H]4CCCCN4Cc4cccc(Cn5cccn5)c4)ccc3C2=O)C(=O)N1 (stereo partly drawn) [Compound I-50en] |  |  |
| 85.5 | 14.5 | 97 | O=C1CCC(N2Cc3cc(OC[C@H]4CCCCN4Cc4ccnc(N5CCOCC5)c4)ccc3C2=O)C(=O)N1 (stereo partly drawn) [Compound I-50dr] |  |  |
| 77.8 | 22.2 | 591 | O=C1CCC(N2Cc3cc(OC[C@@H]4CCCCN4Cc4ccc(-n5nccn5)cc4)ccc3C2=O)C(=O)N1 (stereo partly drawn) [Compound I-50ai] |  |  |
| 73.9 | 26.1 | 1400 | COC1CCC(CN2CCCCC2C(C)Oc2ccc3c(c2)CN(C2CCC(=O)NC2=O)C3=O)CC1 (single isomer, unassigned) [Compound I-219, 3-(5-(1-(1-((4-methoxycyclohexyl)methyl)piperidin-2-yl)ethoxy)-1-oxoisoindolin-2-yl)piperidine-2,6-dione] |  |  |
| 16.8 | 83.2 | > 25000 | COc1ccccc1C(=O)N1CCC[C@@H]1COc1ccc2c(c1)CN(C1CCC(=O)NC1=O)C2=O (stereo partly drawn) [Compound I-83, 3-(5-(((R)-1-(2-methoxybenzoyl)pyrrolidin-2-yl)methoxy)-1-oxoisoindolin-2-yl)piperidine-2,6-dione] |  |  |
| 70.8 | 29.2 | 3040 | O=C1CCC(N2Cc3cc(OC[C@H]4CCCCN4Cc4c[nH]cn4)ccc3C2=O)C(=O)N1 (stereo partly drawn) [Compound I-50ds] |  |  |
| 89.8 | 10.2 | 920 | CCOC(=O)c1cccc2[nH]nc(CN3CCCC[C@@H]3COc3ccc4c(c3)CN(C3CCC(=O)NC3=O)C4=O)c12 (stereo partly drawn) [Compound I-50er] |  |  |
| 53.9 | 46.1 | 150 | O=C1CCC(N2Cc3cc(OC[C@H]4CCCCN4CC4CCOC4)ccc3C2=O)C(=O)N1 (single isomer, unassigned) [Compound I-211] |  |  |
| 62.8 | 37.2 | 3270 | N#Cc1ccccc1CN1CCCC[C@@H]1COc1ccc2c(c1)CN(C1CCC(=O)NC1=O)C2=O (stereo partly drawn) [Compound I-50dz] |  |  |
| 73.2 | 26.8 | 4.3 | CC(C)(C)OC(=O)N1CCN(c2ccc(CN3CCCC[C@@H]3COc3ccc4c(c3)CN(C3CCC(=O)NC3=O)C4=O)cn2)CC1 (stereo partly drawn) [Compound I-189, Tert-butyl 4-(5-(((2R)-2-(((2-(2,6-dioxopiperidin-3-yl)-1-oxoisoindolin-5-yl)oxy)methyl)piperidin-1-yl)methyl)pyridin-2-yl)piperazine-1-carboxylate] |  |  |
| 92.3 | 7.7 | 578 | Cc1nc[nH]c1CN1CCCC[C@H]1COc1ccc2c(c1)CN(C1CCC(=O)NC1=O)C2=O (stereo partly drawn) [Compound I-50ac] |  |  |
| 84.3 | 15.7 | 327 | CCN(CC)c1ccc(CN2CCCC[C@H]2COc2ccc3c(c2)CN(C2CCC(=O)NC2=O)C3=O)cn1 (stereo partly drawn) [Compound I-50as] |  |  |
| 5.1 | 94.9 | > 25000 | O=C1CCC(N2Cc3cc(OC[C@@H]4CCCCN4C(=O)c4cccc(OC(F)F)c4)ccc3C2=O)C(=O)N1 (stereo partly drawn) [Compound I-72hx] |  |  |
| 78.4 | 21.6 | 4260 | Cc1nc(-c2cccc(CN3CCCC[C@@H]3COc3ccc4c(c3)CN(C3CCC(=O)NC3=O)C4=O)c2)no1 (stereo partly drawn) [Compound I-50du] |  |  |
| 57.4 | 42.6 | 20800 | O=C1CCC(N2Cc3cc(OC[C@@H]4CCCCN4Cc4cccc(N5CCOCC5)n4)ccc3C2=O)C(=O)N1 (stereo partly drawn) [Compound I-50bo] |  |  |
| 56.9 | 43.1 | 11400 | O=C1CCC(N2Cc3cc(OC[C@H]4CCCCN4Cc4cccnc4F)ccc3C2=O)C(=O)N1 (stereo partly drawn) [Compound I-149] |  |  |

| Dmax [%] | remaining activity at up to 25 µM [%] | DC50 [nM] | SMILES | % degradation of WIZ (100-Amax) [%] | WIZ Amax [%] |
| --- | --- | --- | --- | --- | --- |
| 83 | 17 | 1480 | O=C1CCC(N2Cc3cc(OC[C@@H]4CCCCN4Cc4ccc(O)c(Cl)c4)ccc3C2=O)C(=O)N1 (stereo partly drawn) [Compound I-50b] |  |  |
|  |  | 360 | CCN1C2CCC(C2)C1COc1ccc2c(c1)CN(C1CCC(=O)NC1=O)C2=O (single isomer, unassigned) [I-255 (Isomer 3), 3-(5-((endo-2-ethyl-2-azabicyclo[2.2.1]heptan-3-yl)methoxy)-1-oxoisoindolin-2-yl)piperidine-2,6-dione] | 26.5 | 73.5 |
| 55.9 | 44.1 | 11100 | Cn1cncc1CN1CCCC[C@@H]1COc1ccc2c(c1)CN(C1CCC(=O)NC1=O)C2=O (stereo partly drawn) [Compound I-50df] |  |  |
| 81.8 | 18.2 | 34 | O=C1CCC(N2Cc3cc(OC[C@H]4CCCCN4Cc4cccc5c4OCCO5)ccc3C2=O)C(=O)N1 (stereo partly drawn) [Compound I-135, 3-(5-(((R)-1-((2,3-dihydrobenzo[b][1,4]dioxin-5-yl)methyl)piperidin-2-yl)methoxy)-1-oxoisoindolin-2-yl)piperidine-2,6-dione] |  |  |
| 17.6 | 82.4 | > 25000 | CCc1cncc(C(=O)N2CCCC[C@H]2COc2ccc3c(c2)CN(C2CCC(=O)NC2=O)C3=O)c1 (stereo partly drawn) [Compound I-72ay] |  |  |
| 41.1 | 58.9 | > 25000 | NS(=O)(=O)c1cc(CN2CCCC[C@H]2COc2ccc3c(c2)CN(C2CCC(=O)NC2=O)C3=O)ccc1Cl (stereo partly drawn) [Compound I-50bd] |  |  |
| 85.2 | 14.8 | 172 | O=C1CCC(N2Cc3cc(OC[C@@H]4CCCCN4Cc4cccc(Cn5cccn5)c4)ccc3C2=O)C(=O)N1 (stereo partly drawn) [Compound I-50bz] |  |  |
| 68 | 32 | 13 | O=C1CCC(N2Cc3cc(OC[C@H]4CCCCN4Cc4ccc(C5CCN(CCF)CC5)cc4)ccc3C2=O)C(=O)N1 (stereo partly drawn) [Compound I-198, 3-(5-(((R)-1-(4-(1-(2-fluoroethyl)piperidin-4-yl)benzyl)piperidin-2-yl)methoxy)-1-oxoisoindolin-2-yl)piperidine-2,6-dione] |  |  |
| 97.2 | 2.8 | 13 | O=C1CCC(N2Cc3cc(OC[C@H]4CCCCN4Cc4cccc(Cn5ccnc5)c4)ccc3C2=O)C(=O)N1 (stereo partly drawn) [Compound I-50eh] |  |  |
| 63.7 | 36.3 | 3910 | O=C1CCC(N2Cc3cc(OC[C@@H]4CCCCN4C(=O)c4ccc(-c5ccc(F)cc5)cn4)ccc3C2=O)C(=O)N1 (stereo partly drawn) [Compound I-72fj] |  |  |
| 98 | 2 | 2 | O=C1CCC(N2Cc3cc(OC[C@H]4CCCCN4Cc4ccc(N5CCOCC5)cc4)ccc3C2=O)C(=O)N1 (stereo partly drawn) [Compound I-50dx] |  |  |
| 82.8 | 17.1 | 32 | O=C1CCC(N2Cc3cc(OC[C@H]4CCCCN4CC4CC4)ccc3C2=O)C(=O)N1 (stereo partly drawn) [Compound I-214, 3-(5-(((R)-1-(cyclopropylmethyl)piperidin-2-yl)methoxy)-1-oxoisoindolin-2-yl)piperidine-2,6-dione] |  |  |
| 21.5 | 78.5 | > 25000 | CCN1CCOC[C@H]1COc1ccc2c(c1)CN(C1CCC(=O)NC1=O)C2=O (stereo partly drawn) [Compound I-64, 3-(5-(((S)-4-ethylmorpholin-3-yl)methoxy)-1-oxoisoindolin-2-yl)piperidine-2,6-dione] |  |  |
| 5.4 | 94.6 | > 25000 | CC(Oc1ccccc1Cl)C(=O)N1CCCC[C@H]1COc1ccc2c(c1)CN(C1CCC(=O)NC1=O)C2=O (stereo partly drawn) [Compound I-72ag] |  |  |
| 99.9 | 0.1 | 2 | O=C1CCC(N2Cc3cc(OC[C@H]4CCCCN4Cc4cccc(N5CCCC5)c4)ccc3C2=O)C(=O)N1 (stereo partly drawn) [Compound I-50do] |  |  |
| 82.8 | 17.1 | 72 | CCN1[C@@H]2CC[C@@H](C2)[C@H]1COc1ccc2c(c1)CN(C1CCC(=O)NC1=O)C2=O (stereo partly drawn) [Compound I-223, 3-(5-(((1R,3S,4S)-2-ethyl-2-azabicyclo[2.2.1]heptan-3-yl)methoxy)-1-oxoisoindolin-2-yl)piperidine-2,6-dione] |  |  |
| 99.3 | 0.7 | 26 | Cc1nccn1-c1ccc(CN2CCCC[C@@H]2COc2ccc3c(c2)CN(C2CCC(=O)NC2=O)C3=O)cc1 (stereo partly drawn) [Compound I-50ew] |  |  |
| 58.7 | 41.3 | 83 | O=C1CCC(N2Cc3cc(OC[C@H]4CCCCN4CC4COC4)ccc3C2=O)C(=O)N1 (stereo partly drawn) [Compound I-202] |  |  |

| SMILES | Dmax [%] | remaining activity at up to 25 µM [%] | DC50 [nM] | % degradation of WIZ (100-Amax) [%] | WIZ Amax [%] |
| --- | --- | --- | --- | --- | --- |
| CCN1CCC(F)(F)CC1COc1ccc2c(c1)CN(C1CCC(=O)NC1=O)C2=O (single isomer, unassigned) [I-252 (Isomer 2), 3-(5-((1-ethyl-4,4-difluoropiperidin-2-yl)methoxy)-1-oxoisoindolin-2-yl)piperidine-2,6-dione] |  |  | 11 | 77.1 | 22.9 |
